From paper PMC9227013, “Synthesis, Anticancer Potential and Comprehensive Toxicity Studies of Novel Brominated Derivatives of Bacterial Biopigment Prodigiosin from Serratia marcescens ATCC 27117” (Molecules, 2022)
Converted amounts (≈) assume the structure as drawn.

Assays:
[1] = tested on: MRC-5 (lung fibroblasts); assay: MTT antiproliferative assay on MRC-5 cells; format: cell-based; conditions: for IC50: Homo sapiens
Description: (§1) Selected cell lines MRC-5 (lung fibroblasts), A549 (lung cancer), A375 (melanoma, skin cancer), MDA-MB-231 (breast cancer), and HCT116 (colon cancer) were obtained from ATCC, Manassas, US. Antiproliferative activities of PG and its Br derivatives were measured using the standard colorimetric MTT [3-(4,5-dimethylthiazol-2-yl)-2,5-diphenyltetrazolium bromide] assay. Briefly, cells were plated in a 96-well flat-bottom plate (Sarstedt, Nümbrecht, Germany) at a concentration of 1 × 10^4 cells per well, grown in a humidified atmosphere of 95% air and 5% CO2 at 37 °C, and maintained as monolayer cultures in RPMI 1640 medium supplemented with 10% fetal bovine serum (FBS), 100 U/mL penicillin, and 100 μg/mL streptomycin (all media components from Gibco™ by Thermo Fischer Scientific CE). Each tested compound was added to the cells at a concentration of 0.05–100.00 μg/mL, and the treatment lasted for 48 h. The MTT assay was performed two times in four replicates, and the results were presented as a percentage of the DMSO-treated control that was arbitrarily set to 100%. Plates were read using the Tecan Infinite 200 Pro multiplate reader (Tecan Group Ltd., Männendorf, Switzerland).
(§2) To assess the effect of the treatment duration, exposure of MRC-5 and HCT116 cells to PG and its Br derivatives was observed after 24 h, 48 h, and 72 h and measured using the MTT assay, as described above. MRC-5 and HCT-116 cells treated for 24 h were additionally analyzed using DM IL LED Inverted Microscope (Leica Microsystems, Mannheim, Germany) at 20× magnification.

[2] = tested on: A549 (lung cancer); assay: MTT antiproliferative assay on A549 cells; format: cell-based; conditions: Homo sapiens, A549, 48 h
Description: as §1

[3] = tested on: A375 (melanoma, skin cancer); assay: MTT antiproliferative assay on A375 cells; format: cell-based; conditions: Homo sapiens, A-375, 48 h
Description: as §1

[4] = tested on: MDA-MB-231 (breast cancer); assay: MTT antiproliferative assay on MDA-MB-231 cells; format: cell-based
Description: as §1

[5] = tested on: HCT116 (colon cancer); assay: MTT antiproliferative assay on HCT116 cells; format: cell-based; conditions: for IC50: Homo sapiens
Description: as §1, §2

[6] = tested on: MRC-5 cells; assay: Annexin V flow cytometry, early apoptosis; format: cell-based; conditions: MRC-5, compound at IC50 concentration, 24 h
Description: The eBioscience^TM Annexin V Apoptosis Detection Kit APC (Invitrogen by Thermo Fischer Scientific, Waltham, MA, USA) was used for the assessment of cellular integrity and the externalization of phosphatidylserine. MRC-5 cells were plated in a 6-well flat-bottom plate at a concentration of 2.5 × 10^5 cells per well, grown for 24 h in a humidified atmosphere of 95% air and 5% CO2 at 37 °C in RPMI 1640 medium supplemented with 10% fetal bovine serum (FBS), 100 U/mL penicillin, and 100 μg/mL streptomycin (Gibco™ by Thermo Fischer Scientific CE, Waltham, MA, USA). Each tested compound was added to the cells at IC50 concentration, and the incubation continued for another 24 h under the same conditions. Upon incubation, cells were collected, washed once with Dulbecco’s Phosphate-Buffered Saline (Gibco™ by Thermo Fischer Scientific CE, Waltham, MA, USA), and stained with Annexin V FITC and propidium iodide (PI) under the manufacturer’s instructions. Briefly, MRC-5 cells were resuspended in 1 × Binding Buffer at 1–5 × 10^6 cells per mL and incubated with 5.00 µL Annexin V FITC for 15 min at room temperature in a final volume of 100 μL. […] Immediately after staining, cells were analyzed using a CyFlow Space Partec flow cytometer, with Partec FloMax software (Partec GmbH, Münster, Germany).

[7] = tested on: Caenorhabditis elegans AU37; assay: Roundworm (C. elegans) survival assay; format: in vivo; conditions: 48 h
Description: Nematode roundworms (Caenorhabditis elegans AU37) were obtained from the Caenorhabditis Genetics Center (CGC), University of Minnesota, Minneapolis, Minnesota, US. C. elegans AU37 (glp-4; sek-1) was propagated under standard conditions, synchronized by hypochlorite bleaching, and cultured on nematode growth medium using E. coli OP50 as a food source, as described previously. The C. elegans survival assay was carried out following the standard procedure with some modifications. Briefly, synchronized worms (L4 stage) were suspended in a medium containing 95% M9 buffer (3.0 g of KH2PO4, 6.0 g of Na2HPO4, 5.0 g of NaCl, and 1 mL of 1 M MgSO4∙7H2O in 1 L of water), 5% LB broth, and 10 μg/mL of cholesterol (Sigma-Aldrich, Munich, Germany). The experiment was carried out in 96-well flat-bottomed microtiter plates (Sarstedt, Nümbrecht, Germany) in the final volume of 100 μL per well. 25 μL of this suspension of nematodes (25–35 nematodes) were transferred to the wells of a 96-well microtiter plate, where 50 μL of the medium was previously added. Next, 25 μL of the solvent control (1% DMSO) or 25 μL of the concentrated tested compound solution was added to the test wells. Final concentrations of the compounds were 50.00, 25.00, 12.50, 6.25, 3.13, and 1.57 µg/mL. Subsequently, the plates were incubated at 25 °C for 2 days. The fraction of dead worms was determined after 48 h by counting the number of dead worms and the total number of worms in each well, using a Carl Zeiss™ Stemi 508 Stereomicroscope (Zeiss Group, Jena, Germany) at 40× magnification. The compounds were tested three times in each assay and each assay was repeated two times (n = 6). As a negative control experiment, nematodes were exposed to the medium containing 1% DMSO.

[8] = tested on: zebrafish (Danio rerio) embryos; assay: Zebrafish (D. rerio) embryotoxicity; format: in vivo
Description: Wild-type zebrafish (Danio rerio) strain was obtained from the commercial supplier Pet Center, Belgrade, Serbia. Zebrafish embryotoxicity assay was performed according to general rules of the OECD Guidelines for the testing of chemicals. The wild-type zebrafish (D. rerio) strain was kept under controlled environmental conditions (water temperature 28 °C, 14 h under the light and 10 h in the dark) and fed regularly three times a day with commercially dry flake food supplemented with Artemia nauplii (TetraMinTM flakes; Tetra Melle, Germany). Zebrafish embryos were produced by female and male adults mating in the ratio of 1:2. Obtained embryos were collected and washed from detritus and carefully handled. Only fertilized embryos were selected and distributed into 24-well plates (Sarstedt, Germany) containing 10 embryos per well. Each well contained exactly 1 mL of water for embryos (0.2 g/L of Instant Ocean® Salt in distilled water). For assessing lethal and developmental toxicity, embryos at the 6 and 20 h postfertilization (hpf) stages were treated with selected compounds at concentrations of 0.1–100 μg/mL (maximum DMSO concentration in the negative control was 1%) and incubated at 28 °C. Experiments were performed in triplicate, using 30 embryos for each concentration. For five days, the appearance of different morphophysiological parameters in embryo development was monitored, and dead embryos were counted and discarded every 24 h. On the fifth day, the embryos were anesthetized by the addition of 0.1% (w/v) tricaine solution (Sigma-Aldrich, St. Louis, Missouri, US), observed under a stereomicroscope (SMZ-143-N2GG, Motic, Germany) at 3.5× magnification, photographed, and killed by freezing at −20 °C for ≥24 h. All experiments involving zebrafish were performed in compliance with the European directive 2010/63/EU and the ethical guidelines of the Guide for Care and Use of Laboratory Animals of the Institute of Molecular Genetics and Genetic Engineering, University of Belgrade, Serbia.

[9] = tested on: A549, A375, MDA-MB-231, and HCT116 cancer cell lines; assay: MTT assay, whole cell line panel; format: cell-based; conditions: 48 h, read-out: IC50 values range over the tested cancer cell lines
Description: as §1

[10] = tested on: A549; conditions: cited from earlier work
[11] = tested on: melanoma cell line A375; parameters: method as in PMID 16736886; conditions: cited from earlier work
[12] = tested on: Breast cancer MDA-MB-231; conditions: cited from earlier work
[13] = tested on: HCT116 colon cancer; parameters: method as in PMID 24247721; conditions: HCT116, 72 h treatment; cited from earlier work
[14] = tested on: HFF (human foreskin fibroblasts) cells; parameters: method as in PMID 24247721; conditions: cited from earlier work
[15] = tested on: C. elegans first stage juveniles; conditions: cited from earlier work
[16] = tested on: juvenile Meloidogyne incognita J2; parameters: method as in doi:10.3390/agronomy12010041; conditions: cited from earlier work
[17] = tested on: Heterodera schachtii J2; conditions: cited from earlier work
[18] = tested on: 60-cell-line panel of the National Cancer Institute (NCI); conditions: NCI 60-cell-line panel; cited from earlier work
[19] = tested on: C. elegans; conditions: PG obtained from S. marcescens; cited from earlier work
[20] = tested on: juveniles of Radopholus similis; conditions: cited from earlier work
[21] = tested on: Meloidogyne javanica; conditions: cited from earlier work

CCCCCC1=CC(=Cc2[nH]c(-c3ccc[nH]3)cc2OC)N=C1C [PG, 4-Methoxy-5-[(5-methyl-4-pentyl-2H-pyrrol-2-ylidene)methyl]-1H,1'H-2,2'-bipyrrole]
IC50 ([1]; MRC5, 24 h): 1.8 ± 0.04 µg/mL (≈ 5.57 µM)
IC50 ([1]; MRC5, 48 h): 1.2 ± 0.04 µg/mL (≈ 3.71 µM)
IC50 ([1]; MRC5, 72 h): 0.7 ± 0.02 µg/mL (≈ 2.16 µM)
fold lower IC50 of 72 h in comparison to 24 h exposure ([1]; MRC-5): 2.5 fold
IC50 [2]: 1.3 ± 0.02 µg/mL (≈ 4.02 µM)
IC50 [3]: 1.25 ± 0.04 µg/mL (≈ 3.86 µM)
IC50 ([4]; Homo sapiens, MDA-MB-231, 48 h): 0.62 ± 0.01 µg/mL (≈ 1.92 µM)
selectivity between healthy and cancer cell lines ([4]; MRC-5 vs breast cancer cells (MDA-MB-231), 48 h): 1.9
IC50 ([5]; HCT-116, 24 h): 5 ± 0.06 µg/mL (≈ 15.5 µM)
IC50 ([5]; HCT-116, 48 h): 0.7 ± 0.02 µg/mL (≈ 2.16 µM)
IC50 ([5]; HCT-116, 72 h): 0.8 ± 0.02 µg/mL (≈ 2.47 µM)
selectivity between healthy and cancer cell lines ([5]; MRC-5 vs colon cancer cells (HCT116), 48 h): 1.7
Annexin V Positive Cells [6]: 20.3 ± 0.5%
Survival rate ([7]; 1.57 µg/mL): 100 ± 0.00%
Survival rate ([7]; 3.13 µg/mL): 100 ± 0.00%
Survival rate ([7]; 6.25 µg/mL): 100 ± 0.00%
Survival rate ([7]; 12.50 µg/mL): 100 ± 0.00%
Survival rate ([7]; 25.00 µg/mL): 100 ± 0.00%
Survival rate ([7]; 50.00 µg/mL): 100 ± 0.00%
death rate ([8]; 10 µg/mL applied at 6 hpf): 100%
effect on embryos ([8]; 2.5 and 0.1 µg/mL, both at 6 hpf and 20 hpf): all the embryos survived, but developed into slightly smaller fish with microcephaly
IC50 [9]: 0.62 to 1.3 µg/mL (≈ 1.92 to 4.02 µM)
anticancer activity against A549 (lower end of literature range) [10]: 0.03 µg/mL
anticancer activity against A549 (upper end of literature range) [10]: 3.23 µg/mL
sensitivity of A375 to PG [11]: 0.70 µg/mL
sensitivity of MDA-MB-231 to PG (lower end of literature range) [12]: 0.02 µg/mL
sensitivity of MDA-MB-231 to PG (upper end of literature range) [12]: 0.68 µg/mL
IC50 [13]: 0.04 µg/mL (≈ 0.124 µM)
growth inhibition ([14]; 0.36 µg/mL PG): 76.16%
IC50 ([14]; 72 h of treatment): 0.15 µg/mL (≈ 0.464 µM)
EC50 [15]: 0.04 µg/mL (≈ 0.124 µM)
IC50 [16]: 200 µg/mL (≈ 618 µM)
Effectiveness [17]: 4.30 µg/mL
average LC50 [18]: 0.68 µg/mL
toxicological assessment [19]: no significant toxic activity
LC50 [20]: 83 µg/mL (≈ 257 µM)
LC50 [21]: 79 µg/mL (≈ 244 µM)
